In patent publication US9302999B2, “Substituted triazoles as herbicides” (E. I. DU PONT DE NEMOURS AND COMPANY, priority 2012, dated 2016):

Columns and labels:
Assay type in all cases: in vivo
[1] = test system: barnyardgrass (Echinochloa crus-galli); test: Test F pre-/postemergence: barnyardgrass
Outline: (§1)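 0–100 visual control scores, taken 14–21 d after application in the greenhouse. Preemergence treatment was made to silt loam soil at sowing. Postemergence sprays hit 1- to 4-leaf plants (2–18 cm) in peat/vermiculite mix. Surfactant-containing non-phytotoxic solvent served as the vehicle.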

[2] = test system: beggarticks (hairy beggarticks, Bidens pilosa); test: Test F pre-/postemergence: beggarticks
From the text: (§2) Seeds of plant species selected from corn (Zea mays), soybean (Glycine max), velvetleaf (Abutilon theophrasti), lambsquarters (Chenopodium album), poinsettia, wild (wild poinsettia, Euphorbia heterophylla), pigweed, palmer (palmer pigweed, Amaranthus palmeri), waterhemp (common waterhemp, Amaranthus rudis), surinam grass (Brachiaria decumbens), crabgrass, Brazil (Brazilian crabgrass, Digitaria horizontalis), panicum, fall (fall panicum Panicum dichotomiflorum), crabgrass, large (large crabgrass, Digitaria sanguinalis), foxtail, giant (giant foxtail, Setaria faberii), foxtail, green (green foxtail Setaria viridis), goosegrass (Eleusine indica), ragweed (common ragweed, Ambrosia elatior), barnyardgrass (Echinochloa crus-galli), sandbur (southern sandbur, Cenchrus echinatus), arrowleaf sida (Sida rhombifolia), ryegrass, Italian (Italian ryegrass, Lolium multiflorum), dayflower, VA (Virginia (VA) dayflower, Commelina virginica), field bindweed (Convolvulus arvensis), cocklebur (common cocklebur, Xanthium strumarium), morningglory (Ipomoea coccinea), nightshade (eastern black nightshade, Solanum ptycanthum), kochia (Kochia scoparia), nutsedge, yellow (yellow nutsedge, Cyperus esculentus), johnsongrass (Sorghum halepense), smartweed (ladysthumb smartweed, Polygonum persicaria), and beggarticks (hairy beggarticks, Bidens pilosa), were planted into a silt loam soil and treated preemergence with test chemicals formulated in a non-phytotoxic solvent mixture which included a surfactant. At the same time, plants selected from these crop and weed species and also pigweed (Amaranthus retroflexus), waterhemp_RES1 (ALS/Triazine resistant common waterhemp, Amaranthus rudis) and waterhemp_RES2 (ALS/HPPD resistant common waterhemp, Amaranthus rudis) were planted in pots containing a planting medium comprising spaghnum peat moss, vermiculite, wetting agent and starter nutrients treated with postemergence applications of some of the test chemicals formulated in the same manner. Plants ranged in height from 2 to 18 cm for postemergence treatments (1- to 4-leaf stage).
(§3) Treated plants and controls were maintained in a greenhouse for 14 to 21 days, after which time all species were compared to controls and visually evaluated. Plant response ratings, summarized in Table E, are based on a scale of 0 to 100 where 0 is no effect and 100 is complete control. A dash (-) response means no test result.

[3] = test system: ryegrass, Italian (Italian ryegrass, Lolium multiflorum); test: Test F pre-/postemergence: ryegrass, Italian
Outline: as §1

[4] = test system: poinsettia, wild (wild poinsettia, Euphorbia heterophylla); test: Test F pre-/postemergence: poinsettia, wild
From the text: as §2, §3

[5] = test system: pigweed, palmer (palmer pigweed, Amaranthus palmeri); test: Test F pre-/postemergence: pigweed, palmer
From the text: as §2, §3

[6] = Postemergence, 250 g ai/ha, scale 0 to 100
[7] = Postemergence, 16 g ai/ha, scale 0 to 100
[8] = Postemergence, 31 g ai/ha, scale 0 to 100
[9] = Postemergence, 62 g ai/ha, scale 0 to 100
[10] = Postemergence, 125 g ai/ha, scale 0 to 100
[11] = Preemergence, 16 g ai/ha, scale 0 to 100, 0 no effect, 100 complete control
[12] = Preemergence, 31 g ai/ha, scale 0 to 100, 0 no effect, 100 complete control
[13] = Preemergence, 62 g ai/ha, scale 0 to 100
[14] = Preemergence, 125 g ai/ha, scale 0 to 100
[15] = Preemergence, 250 g ai/ha, scale 0 to 100

SMILES: CCc1nn(-c2ccc(C(F)(F)F)cc2)nc1Oc1ccnc(C(F)(F)F)c1 [Compound 169]
- Plant response rating, Barnyardgrass [1, 6]: 40
- Plant response rating, Barnyardgrass [1, 7]: 0
- Plant response rating, Barnyardgrass [1, 8]: 0
- Plant response rating, Barnyardgrass [1, 9]: 15
- Plant response rating, Barnyardgrass [1, 10]: 25
- Plant response rating, Barnyardgrass [1, 11]: 0
- Plant response rating, Barnyardgrass [1, 12]: 0
- Plant response rating, Barnyardgrass [1, 13]: 20
- Plant response rating, Barnyardgrass [1, 14]: 60
- Plant response rating, Barnyardgrass [1, 15]: 95
- Plant response rating, Beggarticks [2, 6]: 40
- Plant response rating, Beggarticks [2, 7]: 25
- Plant response rating, Beggarticks [2, 8]: 25
- Plant response rating, Beggarticks [2, 9]: 25
- Plant response rating, Beggarticks [2, 10]: 30
- Plant response rating, Beggarticks [2, 11]: 0
- Plant response rating, Beggarticks [2, 12]: 0
- Plant response rating, Beggarticks [2, 13]: 0
- Plant response rating, Beggarticks [2, 14]: 5
- Plant response rating, Beggarticks [2, 15]: 5
- Plant response rating, Ryegrass, Italian [3, 6]: 30
- Plant response rating, Ryegrass, Italian [3, 7]: 0
- Plant response rating, Ryegrass, Italian [3, 8]: 0
- Plant response rating, Ryegrass, Italian [3, 9]: 20
- Plant response rating, Ryegrass, Italian [3, 10]: 20
- Plant response rating, Ryegrass, Italian [3, 11]: 0
- Plant response rating, Ryegrass, Italian [3, 12]: 0
- Plant response rating, Ryegrass, Italian [3, 14]: 100
- Plant response rating, Ryegrass, Italian [3, 15]: 100
- Plant response rating, Poinsettia, Wild [4, 6]: 85
- Plant response rating, Poinsettia, Wild [4, 7]: 50
- Plant response rating, Poinsettia, Wild [4, 8]: 60
- Plant response rating, Poinsettia, Wild [4, 9]: 60
- Plant response rating, Poinsettia, Wild [4, 10]: 70
- Plant response rating, Poinsettia, Wild [4, 11]: 0
- Plant response rating, Poinsettia, Wild [4, 12]: 0
- Plant response rating, Poinsettia, Wild [4, 14]: 40
- Plant response rating, Poinsettia, Wild [4, 15]: 98
- Plant response rating, Pigweed, Palmer [5, 6]: 100
- Plant response rating, Pigweed, Palmer [5, 7]: 50
- Plant response rating, Pigweed, Palmer [5, 8]: 50
- Plant response rating, Pigweed, Palmer [5, 9]: 90
- Plant response rating, Pigweed, Palmer [5, 10]: 100
- Plant response rating, Pigweed, Palmer [5, 11]: 35
- Plant response rating, Pigweed, Palmer [5, 12]: 100
- Plant response rating, Pigweed, Palmer [5, 14]: 100
- Plant response rating, Pigweed, Palmer [5, 15]: 100

SMILES: CCc1nn(-c2ccc(F)c(F)c2)nc1Oc1ccnc(C(F)(F)F)c1 [Compound 171]
- Plant response rating, Barnyardgrass [1, 11]: 0
- Plant response rating, Barnyardgrass [1, 12]: 5
- Plant response rating, Barnyardgrass [1, 13]: 5
- Plant response rating, Barnyardgrass [1, 14]: 80
- Plant response rating, Barnyardgrass [1, 15]: 100
- Plant response rating, Beggarticks [2, 11]: 0
- Plant response rating, Beggarticks [2, 12]: 0
- Plant response rating, Beggarticks [2, 13]: 0
- Plant response rating, Beggarticks [2, 14]: 0
- Plant response rating, Beggarticks [2, 15]: 0
- Plant response rating, Ryegrass, Italian [3, 11]: 0
- Plant response rating, Ryegrass, Italian [3, 12]: 0
- Plant response rating, Ryegrass, Italian [3, 14]: 25
- Plant response rating, Ryegrass, Italian [3, 15]: 50
- Plant response rating, Poinsettia, Wild [4, 11]: 0
- Plant response rating, Poinsettia, Wild [4, 12]: 0
- Plant response rating, Poinsettia, Wild [4, 14]: 10
- Plant response rating, Poinsettia, Wild [4, 15]: 10
- Plant response rating, Pigweed, Palmer [5, 11]: 0
- Plant response rating, Pigweed, Palmer [5, 12]: 0
- Plant response rating, Pigweed, Palmer [5, 14]: 100
- Plant response rating, Pigweed, Palmer [5, 15]: 100

SMILES: CCCc1nn(-c2ccc(F)c(F)c2)nc1Oc1ccnc(C(F)(F)F)c1 [Compound 172]
- Plant response rating, Barnyardgrass [1, 6]: 85
- Plant response rating, Barnyardgrass [1, 8]: 20
- Plant response rating, Barnyardgrass [1, 10]: 50
- Plant response rating, Barnyardgrass [1, 12]: 70
- Plant response rating, Barnyardgrass [1, 14]: 100
- Plant response rating, Barnyardgrass [1, 15]: 100
- Plant response rating, Beggarticks [2, 6]: 60
- Plant response rating, Beggarticks [2, 8]: 40
- Plant response rating, Beggarticks [2, 10]: 50
- Plant response rating, Beggarticks [2, 12]: 15
- Plant response rating, Beggarticks [2, 14]: 25
- Plant response rating, Beggarticks [2, 15]: 25
- Plant response rating, Ryegrass, Italian [3, 6]: 50
- Plant response rating, Ryegrass, Italian [3, 8]: 20
- Plant response rating, Ryegrass, Italian [3, 10]: 40
- Plant response rating, Ryegrass, Italian [3, 12]: 35
- Plant response rating, Ryegrass, Italian [3, 14]: 100
- Plant response rating, Ryegrass, Italian [3, 15]: 100
- Plant response rating, Poinsettia, Wild [4, 6]: 100
- Plant response rating, Poinsettia, Wild [4, 8]: 80
- Plant response rating, Poinsettia, Wild [4, 10]: 100
- Plant response rating, Poinsettia, Wild [4, 12]: 20
- Plant response rating, Poinsettia, Wild [4, 14]: 50
- Plant response rating, Poinsettia, Wild [4, 15]: 98
- Plant response rating, Pigweed, Palmer [5, 6]: 100
- Plant response rating, Pigweed, Palmer [5, 8]: 100
- Plant response rating, Pigweed, Palmer [5, 10]: 100
- Plant response rating, Pigweed, Palmer [5, 12]: 100
- Plant response rating, Pigweed, Palmer [5, 14]: 100
- Plant response rating, Pigweed, Palmer [5, 15]: 100
